How the values were obtained:
[1] = target: T1, Neuronal acetylcholine receptor; alpha4/beta2 (Homo sapiens, UniProt P17787+P43681); test: Agonist activity at human alpha4beta2 nAChR expressed in human SH-EP1 cells assessed as induction of intracellular Ca2+ influx by FLIPR assay relative to nicotine; format: cell-based
[2] = target: T1, Neuronal acetylcholine receptor; alpha4/beta2; test: Agonist activity at human alpha4beta2 nAChR expressed in human SH-EP1 cells assessed as induction of electrophysiological response at 0.1 uM by patch clamp method relative to acetylcholine; format: cell-based
[3] = target: T1, Neuronal acetylcholine receptor; alpha4/beta2; test: Displacement of [3H]nicotine from human alpha4beta2 nAChR expressed in human SH-EP1 cell membranes after 2 hrs by liquid scintillation counting analysis
[4] = target: T1, Neuronal acetylcholine receptor; alpha4/beta2; test: Agonist activity at human alpha4beta2 nAChR expressed in human SH-EP1 cells assessed as induction of electrophysiological response at 10 uM by patch clamp method relative to acetylcholine; format: cell-based
[5] = target: T1, Neuronal acetylcholine receptor; alpha4/beta2; test: Agonist activity at human alpha4beta2 nAChR expressed in human SH-EP1 cells assessed as induction of electrophysiological response at 1 uM by patch clamp method relative to acetylcholine; format: cell-based
[6] = target: T1, Neuronal acetylcholine receptor; alpha4/beta2; test: Agonist activity at human alpha4beta2 nAChR expressed in human SH-EP1 cells assessed as induction of intracellular Ca2+ influx by FLIPR assay; format: cell-based

T1 sequence (P17787 whole entry): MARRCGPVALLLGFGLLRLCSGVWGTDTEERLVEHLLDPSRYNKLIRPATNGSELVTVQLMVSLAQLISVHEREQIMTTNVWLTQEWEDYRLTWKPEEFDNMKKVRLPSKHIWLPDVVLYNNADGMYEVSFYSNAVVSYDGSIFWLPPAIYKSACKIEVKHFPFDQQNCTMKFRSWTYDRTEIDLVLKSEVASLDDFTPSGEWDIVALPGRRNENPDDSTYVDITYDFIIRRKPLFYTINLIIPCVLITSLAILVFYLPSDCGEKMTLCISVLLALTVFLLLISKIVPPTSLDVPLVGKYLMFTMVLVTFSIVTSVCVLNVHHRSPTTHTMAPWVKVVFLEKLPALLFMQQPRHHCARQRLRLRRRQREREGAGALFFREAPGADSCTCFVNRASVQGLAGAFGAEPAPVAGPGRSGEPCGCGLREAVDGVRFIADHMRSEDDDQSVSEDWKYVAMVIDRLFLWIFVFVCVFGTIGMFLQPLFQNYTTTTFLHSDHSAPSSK
T1 sequence (P43681 whole entry): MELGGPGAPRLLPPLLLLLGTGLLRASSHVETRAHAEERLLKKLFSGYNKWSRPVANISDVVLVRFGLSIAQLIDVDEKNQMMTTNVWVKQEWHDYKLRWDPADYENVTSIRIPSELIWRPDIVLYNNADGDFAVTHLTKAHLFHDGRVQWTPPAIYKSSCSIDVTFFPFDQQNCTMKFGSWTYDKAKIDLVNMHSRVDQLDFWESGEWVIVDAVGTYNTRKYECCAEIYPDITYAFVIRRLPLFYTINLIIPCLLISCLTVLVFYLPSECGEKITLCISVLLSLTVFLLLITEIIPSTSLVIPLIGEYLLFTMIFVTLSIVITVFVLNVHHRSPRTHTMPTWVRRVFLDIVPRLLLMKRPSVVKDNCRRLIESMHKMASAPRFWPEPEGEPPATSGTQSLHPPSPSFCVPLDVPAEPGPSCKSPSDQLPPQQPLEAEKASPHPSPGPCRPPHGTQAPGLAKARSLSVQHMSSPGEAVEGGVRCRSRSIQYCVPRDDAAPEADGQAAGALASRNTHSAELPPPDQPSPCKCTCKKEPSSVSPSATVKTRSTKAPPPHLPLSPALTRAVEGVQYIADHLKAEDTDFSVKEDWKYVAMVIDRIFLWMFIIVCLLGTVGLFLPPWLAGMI

Row | SMILES | Emax [1] | Activity [2] | Ki [3] | Activity [4] | Activity [5] | EC50 [6]
1 | c1ccc(C(c2ccccc2)[N+]23CCN(CC2)CC3)cc1 | < 5% | 1% | > 10000 nM | 1% | 3% | 
2 | c1ccc(C(=C2CN3CCC2CC3)c2ccccc2)cc1 | 6% | 0.6% | 90 nM | 2% | 2% | 
3 | C(=C1/CN2CCC1CC2)/c1ccccc1 | 11% | 2% | 1600 nM | 2% | 3% | > 10000 nM
4 | c1ccc(C[N+]23CCC(CC2)C(=C(c2ccccc2)c2ccccc2)C3)cc1 | < 5% | 2% | 7000 nM | 1% | 2% | 
5 | N#C/C(=C1\CN2CCC1CC2)c1ccccc1 | < 5% | 3% | 1100 nM | 2% | 2% | 
6 | C(CN1CCCCC1)=C(c1ccccc1)c1ccccc1 | 9% | 0.8% | 160 nM | 1% | 2% | 
7 | C(=C1/CN2CCC1CC2)/c1cccnc1 | 18% | 4% | 6 nM | 24% | 11% | > 10000 nM

Source: ChEMBL document CHEMBL2434918, “QM-polarized ligand docking accurately predicts the trend in binding affinity of a series of arylmethylene quinuclidine-like derivatives at the α4β2 and α3β4 nicotinic acetylcholine receptors (nAChRs)” (Bioorg Med Chem Lett, 2013)
